Measured values reported in patent publication US20100113421A1, “NON-NUCLEOSIDE REVERSE TRANSCRIPTASE INHIBITORS” (priority 2006, published 2010).

Columns and labels:
[1] = tested on: HIV strain containing the Y181C mutation; experiment: Spread assay, Y181C mutant strain; format: cell-based; conditions: Human immunodeficiency virus 1; spread assay, 10% FBS, Y181C mutant strain; read-out: CIC95
How it was run: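 Acute HIV-1 infection of T-lymphoid cells run in the presence of 10% FBS, […]; potency expressed as CIC95.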

[2] = tested on: mutant strain containing both the K103N and Y181C mutations; experiment: Spread assay, mutant strain containing both K103N and Y181C; format: cell-based, HIV; conditions: Human immunodeficiency virus 1; analogous spread assay, K103N and Y181C double mutant strain; read-out: CIC95
Procedure: Assays for the inhibition of acute HIV-1 infection of T-lymphoid cells (alternatively referred to herein as the “spread assay”) were conducted in accordance with Vacca, J. P. et al., Proc. Natl. Acad. Sci. USA 1994, 91: 4096. The assays (using 10% FBS) tested for inhibition of wild type HIV-1 and of HIV strains containing the Y181C or K103N mutation. […] (Note that the compound of Example 6 was tested only up to a 833 nM concentration and the CIC95 value was determined to be >833 nM. The compound of Example 78 was not tested in the Y1818C assay.) The compounds of Examples 1 to 119 (including Examples 70A and 70B) had CIC95 values of less than 1000 nanomolar in the assay employing the K103N mutant strain. In an analogous assay employing a mutant strain containing both the K103N and Y181C mutations, the compounds of Examples 70A, 70B and 78-115 had CIC95 values of less than 1000 nanomolar.

Row | Compound | IC95 [1] | IC95 [2]
1 | Cc1cc(C)cc(S(=O)(=O)c2c(C(N)=O)[nH]c(C(=O)N(C)Cc3ccncc3Cl)c2C)c1 [Example 105, N5-[(3-chloropyridin-4-yl)methyl]-3-[(3,5-dimethylphenyl)sulfonyl]-N5,4-dimethyl-1H-pyrrole-2,5-dicarboxamide] | < 8 µM | < 1 µM
2 | CC(C)c1c(C(=O)N(C)Cc2ccncc2F)[nH]c(C(N)=O)c1S(=O)(=O)c1ccccc1 [Example 110, N2-[(3-fluoropyridin-4-yl)methyl]-3-isopropyl-N2-methyl-4-(phenylsulfonyl)-1H-pyrrole-2,5-dicarboxamide] | < 8 µM | < 1 µM
